Values joined by “and” are separate entries in the source; they are usually repeats but may differ in a detail not shown here. Equal values may be shown once. Toxic doses and inconclusive results are not listed. Cut-off read from the data, not from the text of the source: active = T/C of 150% or more; inactive = T/C below 125%.
System: L1210 leukemia ip in BDF1 mice, survival T/C
Assay: NCI In Vivo Anticancer Drug Screen. Data for tumor model L1210 Leukemia (intraperitoneal) in B6D2F1 (BDF1) mice
Conditions: endpoint: mean survival time, higher = longer survival
In short: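 Tumor cells were implanted, animals were treated, and survival was followed. The result divides the treated measurement by the vehicle-control measurement.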

[1] = dose: 100.0 mg/kg/injection, schedule: Q04DX003 (ip), vehicle: Klucel (hydroxypropylcellulose) (HPC)
[2] = dose: 200.0 mg/kg/injection, schedule: Q04DX003 (ip), vehicle: Klucel (hydroxypropylcellulose) (HPC)
[3] = dose: 400.0 mg/kg/injection, schedule: Q04DX003 (ip), vehicle: Klucel (hydroxypropylcellulose) (HPC)
[4] = dose: 200.0 mg/kg/injection, schedule: Q01DX001 (ip), vehicle: carboxymethylcellulose (CMC)
[5] = dose: 50.0 mg/kg/injection, schedule: Q01DX001 (ip), vehicle: Klucel (hydroxypropylcellulose) (HPC)
[6] = dose: 100.0 mg/kg/injection, schedule: Q01DX001 (ip), vehicle: Klucel (hydroxypropylcellulose) (HPC)
[7] = dose: 100.0 mg/kg/injection, schedule: Q01DX009 (ip), vehicle: Klucel (hydroxypropylcellulose) (HPC)
[8] = dose: 200.0 mg/kg/injection, schedule: Q01DX001 (ip), vehicle: Klucel (hydroxypropylcellulose) (HPC)
[9] = dose: 200.0 mg/kg/injection, schedule: Q01DX009 (ip), vehicle: Klucel (hydroxypropylcellulose) (HPC)
[10] = dose: 400.0 mg/kg/injection, schedule: Q01DX009 (ip), vehicle: Klucel (hydroxypropylcellulose) (HPC)
[11] = dose: 100.0 mg/kg/injection, schedule: Q01DX001 (ip), vehicle: saline with Tween-80
[12] = dose: 100.0 mg/kg/injection, schedule: Q01DX009 (ip), vehicle: saline with Tween-80
[13] = dose: 100.0 mg/kg/injection, schedule: Q04DX002 (ip), vehicle: saline with Tween-80
[14] = dose: 100.0 mg/kg/injection, schedule: Q04DX003 (ip), vehicle: saline with Tween-80
[15] = dose: 200.0 mg/kg/injection, schedule: Q01DX001 (ip), vehicle: saline with Tween-80
[16] = dose: 200.0 mg/kg/injection, schedule: Q01DX009 (ip), vehicle: saline with Tween-80
[17] = dose: 200.0 mg/kg/injection, schedule: Q04DX002 (ip), vehicle: saline with Tween-80
[18] = dose: 200.0 mg/kg/injection, schedule: Q04DX003 (ip), vehicle: saline with Tween-80
[19] = dose: 400.0 mg/kg/injection, schedule: Q01DX009 (ip), vehicle: saline with Tween-80
[20] = dose: 400.0 mg/kg/injection, schedule: Q04DX002 (ip), vehicle: saline with Tween-80
[21] = dose: 400.0 mg/kg/injection, schedule: Q04DX003 (ip), vehicle: saline with Tween-80
[22] = dose: 25.0 mg/kg/injection, schedule: Q01DX009 (ip), vehicle: Klucel (hydroxypropylcellulose) (HPC)
[23] = dose: 50.0 mg/kg/injection, schedule: Q01DX009 (ip), vehicle: Klucel (hydroxypropylcellulose) (HPC)
[24] = dose: 100.0 mg/kg/injection, schedule: Q01DX009 (ip), vehicle: saline
[25] = dose: 200.0 mg/kg/injection, schedule: Q01DX009 (ip), vehicle: saline

Measured: T/C

CC1(C)C2CCCC1(CCOC(=O)COc1cc(Cl)c(Cl)cc1Cl)C2 (stereo not given)
inactive: dose: 100.0 mg/kg/injection, schedule: Q04DX002 (ip), vehicle: Klucel (hydroxypropylcellulose) (HPC) 98 % of control | dose: 200.0 mg/kg/injection, schedule: Q04DX002 (ip), vehicle: Klucel (hydroxypropylcellulose) (HPC) 91 % of control | dose: 400.0 mg/kg/injection, schedule: Q04DX002 (ip), vehicle: Klucel (hydroxypropylcellulose) (HPC) 88 % of control

CCCCCCCCCCCC(=O)NC(=S)Nc1ccc([N+](=O)[O-])cc1OC
inactive: [1] 96 % of control | [2] 92 % of control | [3] 102 % of control

Cc1ccc(S(=O)(=O)S/C(=N\c2ccccn2)Nc2ccccn2)cc1
inactive: dose: 100.0 mg/kg/injection, schedule: Q01DX001 (ip), vehicle: carboxymethylcellulose (CMC) 98 % of control | [4] 93 % of control | dose: 400.0 mg/kg/injection, schedule: Q01DX001 (ip), vehicle: carboxymethylcellulose (CMC) 91 % of control

CCOC(=O)CNC(=O)CBr
inactive: dose: 10.0 mg/kg/injection, schedule: Q01DX Z (ip), vehicle: other 103 % of control | dose: 20.0 mg/kg/injection, schedule: Q01DX Z (ip), vehicle: other 91 % of control

Nc1nc(N)c(-c2ccc(Cl)c(Cl)c2)c(COc2ccc(CNS(=O)(=O)c3ccc(S(=O)(=O)F)cc3)cc2Cl)n1
inactive: dose: 25.0 mg/kg/injection, schedule: Q01DX001 (ip), vehicle: Klucel (hydroxypropylcellulose) (HPC) 94 % of control | [5] 94 % of control | [6] 96 % of control

O=[N+]([O-])c1ccc(/C=C/C=C\c2ccc(S(=O)(=O)F)cc2Cl)cc1
inactive: [1] 96 % of control | [2] 92 % of control | [3] 96 % of control

Cc1cc(NC(=O)NCCCCCCNC(=O)Nc2cc(C)on2)no1
inactive: dose: 100.0 mg/kg/injection, schedule: Q01DX009 (ip), vehicle: other 89 % of control | dose: 200.0 mg/kg/injection, schedule: Q01DX009 (ip), vehicle: other 111 % of control | dose: 400.0 mg/kg/injection, schedule: Q01DX009 (ip), vehicle: other 100 % of control

O=[N+]([O-])c1ccc(Cc2ccccn2)cc1
inactive: [6] 104 % of control | [7] 95 % of control | [8] 108 % of control | [9] 101 % of control | dose: 400.0 mg/kg/injection, schedule: Q01DX001 (ip), vehicle: Klucel (hydroxypropylcellulose) (HPC) 112 % of control

CCOc1ccccc1NC(c1ccc(OC)cc1)P(=O)(c1ccccc1)c1ccccc1 (stereo not given)
inactive: [1] 101 % of control | [2] 101 % of control | [3] 92 % of control

Clc1ccc(N=Cc2ccccc2)cc1
inactive: [7] 104 % of control | [1] 95 % of control | [9] 103 % of control | [2] 96 % of control | [10] 98 % of control | [3] 104 % of control

O=C(NC(=S)Nc1cc(Cl)ccc1Cl)c1ccc(Cl)cc1Cl
inactive: [11] 92 % of control | [12] 94 % of control and 97 % of control | [13] 87 % of control and 90 % of control | [14] 97 % of control | [15] 94 % of control | [16] 93 % of control and 97 % of control | [17] 97 % of control and 87 % of control | [18] 92 % of control | dose: 400.0 mg/kg/injection, schedule: Q01DX001 (ip), vehicle: saline with Tween-80 94 % of control | [19] 103 % of control and 105 % of control | [20] 93 % of control and 101 % of control | [21] 95 % of control

O=NC1C(Cl)C2CC1C1C(Br)C(Br)CC21 (stereo not given)
inactive: dose: 12.5 mg/kg/injection, schedule: Q04DX003 (ip), vehicle: Klucel (hydroxypropylcellulose) (HPC) 100 % of control | [22] 93 % of control | dose: 25.0 mg/kg/injection, schedule: Q04DX003 (ip), vehicle: Klucel (hydroxypropylcellulose) (HPC) 102 % of control | [5] 95 % of control | [23] 93 % of control | dose: 50.0 mg/kg/injection, schedule: Q04DX003 (ip), vehicle: Klucel (hydroxypropylcellulose) (HPC) 100 % of control | [6] 92 % of control | [7] 88 % of control | dose: 150.0 mg/kg/injection, schedule: Q01DX009 (ip), vehicle: saline 90 % of control | [8] 89 % of control | dose: 335.0 mg/kg/injection, schedule: Q01DX009 (ip), vehicle: saline 94 % of control

CCCCCCCCCCCCCCP(I)(N(C)C)(N(C)C)N(C)C
inactive: dose: 0.78 mg/kg/injection, schedule: Q04DX002 (ip), vehicle: saline 107 % of control | dose: 1.56 mg/kg/injection, schedule: Q04DX002 (ip), vehicle: saline 113 % of control | dose: 3.13 mg/kg/injection, schedule: Q04DX002 (ip), vehicle: saline 113 % of control

COc1ccccc1NCS(=O)(=O)O
inactive: [14] 98 % of control | [18] 102 % of control | [21] 100 % of control

COc1cc(N)c(C(F)(F)F)cc1OC
inactive: [12] 96 % of control | [14] 103 % of control | [16] 94 % of control | [18] 105 % of control | [19] 104 % of control | [21] 104 % of control

O=C(O)CCNCCO
inactive: [24] 98 % of control | [25] 98 % of control

Clc1c(C(Cl)(Cl)Cl)nc2ccccc2c1Cl
inactive: dose: 12.5 mg/kg/injection, schedule: Q01DX009 (ip), vehicle: Klucel (hydroxypropylcellulose) (HPC) 115 % of control | [22] 107 % of control | [23] 86 % of control

CCC1(c2ccccc2)NC(=O)N(C)C1=O (stereo not given)
inactive: [7] 97 % of control | [1] 100 % of control | [9] 110 % of control | [2] 95 % of control | [3] 90 % of control

CCOC(=O)Nc1cc2c(c(NC(=O)OCC)n1)N=C(CN(C)c1ccccc1)CN2
inactive: dose: 12.5 mg/kg/injection, schedule: Q01DX009 (ip), vehicle: saline with Tween-80 100 % of control | dose: 25.0 mg/kg/injection, schedule: Q01DX009 (ip), vehicle: saline with Tween-80 105 % of control | dose: 50.0 mg/kg/injection, schedule: Q01DX009 (ip), vehicle: saline with Tween-80 114 % of control | dose: 88.0 mg/kg/injection, schedule: Q01DX001 (ip), vehicle: saline with Tween-80 105 % of control | [11] 106 % of control | dose: 133.0 mg/kg/injection, schedule: Q01DX001 (ip), vehicle: saline with Tween-80 97 % of control | [15] 113 % of control

C[N+]1(C)CCC2=CC3C=CC2C1C=C3 (stereo not given)
inactive: dose: 12.5 mg/kg/injection, schedule: Q01DX009 (ip), vehicle: saline 95 % of control | dose: 25.0 mg/kg/injection, schedule: Q01DX009 (ip), vehicle: saline 93 % of control | dose: 50.0 mg/kg/injection, schedule: Q01DX009 (ip), vehicle: saline 90 % of control

CCOC(C)c1ccccc1 (stereo not given)
inactive: [4] 95 % of control

CCCCCCN(CCCCCC)CCC(=O)c1ccc2cc(Br)c3ccccc3c2c1
inactive: dose: 13.3 mg/kg/injection, schedule: Q01DX Z (ip), vehicle: methylcellulose (MC) 92 % of control | dose: 20.0 mg/kg/injection, schedule: Q01DX Z (ip), vehicle: methylcellulose (MC) 86 % of control | dose: 30.0 mg/kg/injection, schedule: Q01DX Z (ip), vehicle: methylcellulose (MC) 92 % of control

COc1ccc2c(c1)NCc1c(Br)cc(Br)cc1C2=O
inactive: [24] 94 % of control | [25] 93 % of control | dose: 400.0 mg/kg/injection, schedule: Q01DX009 (ip), vehicle: saline 91 % of control

N#CC1SCCCS1
inactive: [5] 104 % of control | [6] 105 % of control | [13] 101 % of control | [8] 96 % of control | [17] 108 % of control | [20] 108 % of control

COc1cc(-c2cc(-c3ccccc3)c3ccccc3n2)cc(OC)c1OC
inactive: [7] 97 % of control | [9] 100 % of control | [10] 96 % of control

From PubChem BioAssay AID248 (DTP/NCI, 2004)
